Assay results as given in Sander's compilation of Henry's law constants (doi:10.1016/0045-6535(88)90028-8).

Test: Henry solubility constant Hcp at 298.15 K (mol/(m3 Pa))
Conditions: reference: Dunnivant and Elzerman (1988)

Compound | Henry solubility constant Hcp
Clc1cccc(-c2cccc(Cl)c2Cl)c1Cl [2,2',3,3'-tetrachlorobiphenyl] | 0.049
Clc1cc(Cl)c(-c2cc(Cl)c(Cl)cc2Cl)cc1Cl [2,2',4,4',5,5'-hexachlorobiphenyl] | 0.075
Clc1cc(Cl)c(-c2c(Cl)cc(Cl)cc2Cl)c(Cl)c1 [2,2',4,4',6,6'-hexachlorobiphenyl] | 0.013
Clc1ccc(Cl)c(-c2cc(Cl)c(Cl)cc2Cl)c1 [2,2',4,5,5'-pentachlorobiphenyl] | 0.039
Clc1ccc(Cl)c(-c2cc(Cl)ccc2Cl)c1 [2,2',5,5'-tetrachlorobiphenyl] | 0.029
Clc1ccc(Cl)c(-c2ccccc2Cl)c1 [2,2',5-trichlorobiphenyl] | 0.026
Clc1cccc(Cl)c1-c1c(Cl)cccc1Cl [2,2',6,6'-tetrachlorobiphenyl] | 0.018
Clc1ccccc1-c1ccccc1Cl [2,2'-dichlorobiphenyl] | 0.029
Clc1cccc(-c2cc(Cl)ccc2Cl)c1 [2,3',5-trichlorobiphenyl] | 0.03
Clc1cc(Cl)c(-c2ccccc2)c(Cl)c1 [2,4,6-trichlorobiphenyl] | 0.015
Clc1ccc(-c2ccccc2)c(Cl)c1 [2,4-dichlorobiphenyl] | 0.028
Clc1ccc(Cl)c(-c2ccccc2)c1 [2,5-dichlorobiphenyl] | 0.025
Clc1ccc(-c2ccc(Cl)c(Cl)c2)cc1Cl [3,3',4,4'-tetrachlorobiphenyl] | 0.1
Clc1cccc(-c2cccc(Cl)c2)c1 [3,3'-dichlorobiphenyl] | 0.042
Clc1ccc(-c2ccccc2)cc1Cl [3,4-dichlorobiphenyl] | 0.048
Clc1ccc(-c2ccc(Cl)cc2)cc1 [4,4'-dichlorobiphenyl] | 0.05
